This is an account of results in ChEMBL document CHEMBL5620355, “Discovery of intracellular self-assembly protein degraders driven by tumor-specific activatable bioorthogonal reaction” (Eur J Med Chem, 2023).

Data set [1] can be described thus: Stability of compound in PBS by HPLC analysis. The format is physicochemical. The following applies: buffer.
In data set [2] the test system is U-87 MG. The data set can be described thus: Induction of apoptosis in human U87 cells assessed as early apoptotic cells at 20 uM incubated for 48 hrs in presence of 4-(4-(3-(4-chloro-3-(trifluoromethyl)phenyl)ureido)phenoxy)-N-(prop-2-yn-1-yl)picolinamide by Annexin V-FLTC/PI staining based flow cytometry (reference value: 8.95 %). It is filed as functional, U-87MG ATCC.

Data set [3] concerns U-87 MG. The data set can be described thus: Induction of apoptosis in human U87 cells assessed as late apoptotic cells at 1 uM incubated for 48 hrs in presence of 4-(4-(3-(4-chloro-3-(trifluoromethyl)phenyl)ureido)phenoxy)-N-(prop-2-yn-1-yl)picolinamide by Annexin V-FLTC/PI staining based flow cytometry (reference value: 3.71 %). The format is functional, U-87MG ATCC.
A short description of data set [4]: Stability of compound in H2O by HPLC analysis. It is filed as physicochemical.
Data set [5] deals with Vascular endothelial growth factor receptor 2 (Homo sapiens) (UniProt P35968). The data set can be described thus: Induction of VEGFR2 degradation in human U87 cells at 10 uM incubated for 48 hrs by Western blot analysis. The format is cell-based.
For data set [6], the system named is U-87 MG. The data set can be described thus: Induction of apoptosis in human U87 cells assessed as late apoptotic cells at 10 uM incubated for 48 hrs in presence of 4-(4-(3-(4-chloro-3-(trifluoromethyl)phenyl)ureido)phenoxy)-N-(prop-2-yn-1-yl)picolinamide by Annexin V-FLTC/PI staining based flow cytometry (reference value: 3.71 %). It is filed as functional, U-87MG ATCC.

Data set [7] can be described thus: Stability of compound in DMEM medium by HPLC analysis. It is filed as physicochemical.
The test system of data set [8] is U-87 MG. The data set can be described thus: Induction of apoptosis in human U87 cells assessed as necrotic cells at 1 uM incubated for 48 hrs in presence of 4-(4-(3-(4-chloro-3-(trifluoromethyl)phenyl)ureido)phenoxy)-N-(prop-2-yn-1-yl)picolinamide by Annexin V-FLTC/PI staining based flow cytometry (reference value: 0.60 %). The format is functional, U-87MG ATCC.

Data set [9] has as its target Serine/threonine-protein kinase B-raf (Homo sapiens) (UniProt P15056). Kind of data set: Induction of BRAF degradation in human U87 cells at 10 uM incubated for 48 hrs by Western blot analysis. It is filed as cell-based.
The target in data set [10] is Vascular endothelial growth factor receptor 2 (Homo sapiens) (UniProt P35968). The data set can be described thus: Induction of VEGFR2 degradation in human U87 cells upto 10 uM incubated for 48 hrs by Western blot analysis. The format is cell-based.
The test system of data set [11] is U-87 MG. The data set can be described thus: Induction of cell cycle arrest at S phase in human U87 cells incubated for 48 hrs in presence of (2S,4R)-1-((S)-2-(5-azidopentanamido)-3,3-dimethylbutanoyl)-4-hydroxy-N-(4-(4-methylthiazol-5-yl)benzyl)pyrrolidine-2-carboxamide by PI staining based flow cytometry. The format is functional. The following applies: U-87MG ATCC, dose 0.1-1 µM.

The test system of a further data set is HEK293. Kind of data set: Cytotoxicity against HEK293 cells at low concentration incubated for 48 hrs in presence of 4-azido-N-(2-(2,6-dioxopiperidin-3-yl)-1,3-dioxoisoindolin-4-yl)butanamide by MTT assay. It is filed as toxicity, cell-based. The note with it: human, hek293, 48 h.
The test system of data set [12] is U-87 MG. Kind of data set: Induction of apoptosis in human U87 cells assessed as viable cells at 0.1 uM incubated for 48 hrs in presence of (2S,4R)-1-((S)-2-(5-azidopentanamido)-3,3-dimethylbutanoyl)-4-hydroxy-N-(4-(4-methylthiazol-5-yl)benzyl)pyrrolidine-2-carboxamide by Annexin V-FLTC/PI staining based flow cytometry (reference value: 86.74 %). It is filed as functional, U-87MG ATCC. The following applies: read-out: Activity.

Data set [13] has as its target Platelet-derived growth factor receptor beta (Homo sapiens) (UniProt P09619). The data set can be described thus: Induction of PDGFR-beta degradation in human U87 cells upto 10 uM incubated for 48 hrs by Western blot analysis. It is filed as cell-based.
The next data set relates to A549. Kind of data set: Antiproliferative activity against human A549 cells incubated for 48 hrs in presence of (2S,4R)-1-((S)-2-(5-azidopentanamido)-3,3-dimethylbutanoyl)-4-hydroxy-N-(4-(4-methylthiazol-5-yl)benzyl)pyrrolidine-2-carboxamide by MTT assay. The format is functional, cell-based. The note with it: A549, 48 h.
Data set [14] deals with U-87 MG. The data set can be described thus: Induction of apoptosis in human U87 cells assessed as late apoptotic cells at 5 uM incubated for 48 hrs in presence of (2S,4R)-1-((S)-2-(5-azidopentanamido)-3,3-dimethylbutanoyl)-4-hydroxy-N-(4-(4-methylthiazol-5-yl)benzyl)pyrrolidine-2-carboxamide by Annexin V-FLTC/PI staining based flow cytometry (reference value: 3.71 %). It is filed as functional, U-87MG ATCC.

In data set [15] the test system is U-87 MG. The data set can be described thus: Induction of apoptosis in human U87 cells assessed as early apoptotic cells at 5 uM incubated for 48 hrs in presence of (2S,4R)-1-((S)-2-(5-azidopentanamido)-3,3-dimethylbutanoyl)-4-hydroxy-N-(4-(4-methylthiazol-5-yl)benzyl)pyrrolidine-2-carboxamide by Annexin V-FLTC/PI staining based flow cytometry (reference value: 8.95 %). The format is functional, U-87MG ATCC.

The test system of data set [16] is U-87 MG. The data set can be described thus: Induction of apoptosis in human U87 cells assessed as late apoptotic cells at 20 uM incubated for 48 hrs in presence of (2S,4R)-1-((S)-2-(5-azidopentanamido)-3,3-dimethylbutanoyl)-4-hydroxy-N-(4-(4-methylthiazol-5-yl)benzyl)pyrrolidine-2-carboxamide by Annexin V-FLTC/PI staining based flow cytometry (reference value: 3.71 %). It is filed as functional, U-87MG ATCC.

Data set [17] relates to U-87 MG. Kind of data set: Induction of apoptosis in human U87 cells assessed as necrotic cells at 20 uM incubated for 48 hrs in presence of (2S,4R)-1-((S)-2-(5-azidopentanamido)-3,3-dimethylbutanoyl)-4-hydroxy-N-(4-(4-methylthiazol-5-yl)benzyl)pyrrolidine-2-carboxamide by Annexin V-FLTC/PI staining based flow cytometry (reference value: 0.60 %). It is filed as functional, U-87MG ATCC.

The target in data set [18] is Vascular endothelial growth factor receptor 2 (Homo sapiens) (UniProt P35968). Kind of data set: Induction of VEGFR2 degradation in human U87 cells at 2 uM incubated for 48 hrs in presence of (2S,4R)-1-((S)-2-(5-azidopentanamido)-3,3-dimethylbutanoyl)-4-hydroxy-N-(4-(4-methylthiazol-5-yl)benzyl)pyrrolidine-2-carboxamide by Western blot analysis. It is filed as cell-based.

Active and inactive are the calls of the source. No cut-off for these calls is given here.

Chain of Vascular endothelial growth factor receptor 2 (Homo sapiens) (P35968 whole entry): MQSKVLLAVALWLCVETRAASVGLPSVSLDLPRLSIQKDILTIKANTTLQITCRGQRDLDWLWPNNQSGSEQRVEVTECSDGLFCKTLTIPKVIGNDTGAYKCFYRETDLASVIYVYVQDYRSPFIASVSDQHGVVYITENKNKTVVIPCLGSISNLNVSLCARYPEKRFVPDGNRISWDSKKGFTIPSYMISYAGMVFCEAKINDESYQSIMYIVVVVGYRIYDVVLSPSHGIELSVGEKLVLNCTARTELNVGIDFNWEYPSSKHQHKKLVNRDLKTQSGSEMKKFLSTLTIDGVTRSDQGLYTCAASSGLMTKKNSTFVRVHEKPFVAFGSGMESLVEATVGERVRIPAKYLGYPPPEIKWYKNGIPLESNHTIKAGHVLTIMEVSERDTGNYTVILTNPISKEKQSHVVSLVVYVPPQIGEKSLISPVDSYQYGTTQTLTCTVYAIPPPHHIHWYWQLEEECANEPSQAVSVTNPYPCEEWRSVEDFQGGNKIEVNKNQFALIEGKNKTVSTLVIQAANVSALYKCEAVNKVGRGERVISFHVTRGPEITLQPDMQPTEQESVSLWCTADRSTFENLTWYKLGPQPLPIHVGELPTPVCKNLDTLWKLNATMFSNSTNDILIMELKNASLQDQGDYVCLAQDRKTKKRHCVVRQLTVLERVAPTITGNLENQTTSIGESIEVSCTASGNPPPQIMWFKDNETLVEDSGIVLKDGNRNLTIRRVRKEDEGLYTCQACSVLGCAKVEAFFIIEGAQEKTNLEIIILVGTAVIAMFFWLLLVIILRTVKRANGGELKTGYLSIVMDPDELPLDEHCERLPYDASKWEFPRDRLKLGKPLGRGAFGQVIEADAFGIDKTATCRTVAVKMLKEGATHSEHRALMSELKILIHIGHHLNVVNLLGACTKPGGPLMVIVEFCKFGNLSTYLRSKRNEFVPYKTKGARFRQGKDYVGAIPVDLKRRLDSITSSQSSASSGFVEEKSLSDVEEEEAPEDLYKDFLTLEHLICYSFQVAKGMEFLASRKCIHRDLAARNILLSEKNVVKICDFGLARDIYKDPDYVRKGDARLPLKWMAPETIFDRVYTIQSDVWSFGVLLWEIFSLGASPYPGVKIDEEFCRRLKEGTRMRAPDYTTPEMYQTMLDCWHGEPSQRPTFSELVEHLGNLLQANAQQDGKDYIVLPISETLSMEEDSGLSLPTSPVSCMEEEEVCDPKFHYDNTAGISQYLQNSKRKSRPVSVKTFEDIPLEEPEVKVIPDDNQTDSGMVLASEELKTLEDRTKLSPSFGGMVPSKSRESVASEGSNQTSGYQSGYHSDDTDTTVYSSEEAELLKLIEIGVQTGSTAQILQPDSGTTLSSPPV
Chain of Serine/threonine-protein kinase B-raf (Homo sapiens) (P15056 whole entry): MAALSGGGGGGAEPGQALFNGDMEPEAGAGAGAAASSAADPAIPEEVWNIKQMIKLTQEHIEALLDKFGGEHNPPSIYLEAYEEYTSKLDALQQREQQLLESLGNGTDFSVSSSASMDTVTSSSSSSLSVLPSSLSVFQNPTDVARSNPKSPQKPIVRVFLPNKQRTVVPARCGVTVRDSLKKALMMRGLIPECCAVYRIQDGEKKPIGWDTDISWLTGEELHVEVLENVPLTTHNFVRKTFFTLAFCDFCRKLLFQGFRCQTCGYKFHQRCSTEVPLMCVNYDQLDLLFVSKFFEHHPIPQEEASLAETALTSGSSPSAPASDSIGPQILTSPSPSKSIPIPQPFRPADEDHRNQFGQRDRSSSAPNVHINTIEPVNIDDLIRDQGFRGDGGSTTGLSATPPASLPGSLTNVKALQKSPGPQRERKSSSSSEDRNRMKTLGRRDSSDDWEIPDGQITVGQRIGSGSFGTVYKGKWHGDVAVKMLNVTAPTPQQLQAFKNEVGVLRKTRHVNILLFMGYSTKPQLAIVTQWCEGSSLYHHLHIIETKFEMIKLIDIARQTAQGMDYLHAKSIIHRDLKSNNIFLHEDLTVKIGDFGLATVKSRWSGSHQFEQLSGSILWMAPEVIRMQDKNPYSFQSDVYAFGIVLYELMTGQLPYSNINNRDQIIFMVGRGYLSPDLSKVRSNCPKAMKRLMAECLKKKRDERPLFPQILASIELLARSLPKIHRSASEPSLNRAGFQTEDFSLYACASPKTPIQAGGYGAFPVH
Chain of Platelet-derived growth factor receptor beta (Homo sapiens) (P09619 whole entry): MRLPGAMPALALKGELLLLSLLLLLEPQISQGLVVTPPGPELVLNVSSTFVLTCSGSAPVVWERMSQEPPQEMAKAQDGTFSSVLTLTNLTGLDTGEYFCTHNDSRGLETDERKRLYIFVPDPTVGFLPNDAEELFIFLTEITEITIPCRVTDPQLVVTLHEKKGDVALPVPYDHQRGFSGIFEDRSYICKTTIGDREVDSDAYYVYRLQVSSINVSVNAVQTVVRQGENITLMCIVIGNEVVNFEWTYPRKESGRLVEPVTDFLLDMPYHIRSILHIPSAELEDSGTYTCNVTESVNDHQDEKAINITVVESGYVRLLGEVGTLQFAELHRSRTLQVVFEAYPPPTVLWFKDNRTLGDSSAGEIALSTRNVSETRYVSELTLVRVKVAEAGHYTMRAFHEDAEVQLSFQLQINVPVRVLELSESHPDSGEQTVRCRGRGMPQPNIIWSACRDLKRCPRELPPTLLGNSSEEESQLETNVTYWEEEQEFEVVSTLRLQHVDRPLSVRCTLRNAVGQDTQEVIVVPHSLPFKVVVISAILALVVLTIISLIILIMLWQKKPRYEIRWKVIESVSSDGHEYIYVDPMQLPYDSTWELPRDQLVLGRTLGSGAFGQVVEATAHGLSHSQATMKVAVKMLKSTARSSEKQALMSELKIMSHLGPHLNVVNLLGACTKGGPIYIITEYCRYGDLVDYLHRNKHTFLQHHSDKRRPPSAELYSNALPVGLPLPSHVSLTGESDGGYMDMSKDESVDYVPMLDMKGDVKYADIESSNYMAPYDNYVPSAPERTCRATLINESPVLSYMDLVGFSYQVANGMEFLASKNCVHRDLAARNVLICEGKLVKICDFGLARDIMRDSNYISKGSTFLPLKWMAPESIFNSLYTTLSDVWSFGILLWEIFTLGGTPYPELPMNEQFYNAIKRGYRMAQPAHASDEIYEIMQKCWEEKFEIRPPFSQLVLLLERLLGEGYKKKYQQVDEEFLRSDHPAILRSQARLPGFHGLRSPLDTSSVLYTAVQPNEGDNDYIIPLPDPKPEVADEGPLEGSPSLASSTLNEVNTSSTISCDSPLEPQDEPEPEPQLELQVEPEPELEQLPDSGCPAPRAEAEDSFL

Turning to `[N-]=[N+]=NCCCC(=O)Nc1cccc2c1C(=O)N(C1CCC(=O)NC1=O)C2=O` (stereo not given), the Stability result in [1] is “Unstable”; in data set [4] it was “Stable”; in [7], “Unstable”. In addition, the Activity in the data set with U-87 MG [2] is on record as 4.73%; in the data set with U-87 MG [3], 5.43%; in the data set on U-87 MG [6], 72.58%; with U-87 MG [8], 1.26%. Moreover, the result in [5] and in [9] was Active.

Regarding `C#CCNC(=O)c1cc(Oc2ccc(NC(=O)Nc3ccc(Cl)c(C(F)(F)F)c3)cc2)ccn1`, the outcome in data set [10] and in [13] was inactive. Moreover, the Activity entry in the data set on U-87 MG [11] was “Dose-Dependent Effect”; in the data set on HEK293, “Non-Toxic”; in the data set on U-87 MG [14] it was 73.25%; in the data set with U-87 MG [15], 0.05%; in the data set with U-87 MG [16], 79.04%; with U-87 MG [17], 6.36%. In addition, the viability at 0.1 µM with U-87 MG [12] stood at 85.3%. Further, the half-inhibitory concentration (IC50) in the data set with A549 turned out to be 1060 nM. Moreover, the outcome in data set [18] was Active.
